For one test, the system named is E. coli ATCC 25922. The test is described as follows: microbe, parasite or virus in culture. The test is classed as cell-based, Escherichia coli. The conditions noted are these: ATCC 25922, 24 h. As to the method:
(§1) Tissue expression of devil cathelicidin prepropeptides was determined by real-time PCR on a range of secretory, immune, reproductive, gastrointestinal and respiratory tissues, as well as BLAST searches of the milk transcriptome. Opportunistic tissue samples for real-time PCR were collected from Taronga Zoo (Sydney) from devils which were subject to euthanasia due to old age and advanced disease. The mature peptides of all six devil cathelicidins were synthesised by ChinaPeptides Co. Ltd. and their antimicrobial activity against bacterial and fungal pathogens determined by broth microdilution susceptibility assay according to clinical laboratory standards institute guidelines. Antimicrobial activity was expressed as minimum inhibitory concentration (MIC). Cytotoxicity was assessed in the human cell line A549 and haemolytic activity determined against human blood. Statistical significance of peptide effect on cell survival in comparison to the untreated control was calculated using a one sample t-test. Pouch microbiome analysis was performed on swabs from the pouch of lactating and non-lactating devils to detect changes in microbe populations. Pouch swab collection was carried out in accordance with the Save the Tasmanian Devil Program and was approved by the Animal Ethics Committee of the University of Sydney (permit number 681). […]
(§2) base (YNB) for fungi, from a concentration of 64μg/mL to 0.125μg/mL in a final volume of 100 μL .
(§3) Two antibiotics, ampicillin and tetracycline, were included as a positive control for bacteria, and the antifungal drug fluconazole for fungi. A well containing cells and media only was used as a “no drug” control to ensure that cultures grew normally. Bacteria were subcultured on Mueller Hinton agar (MHA) or Sheep blood agar (BA) for 24 hours at 35 °C for Staphylococcus spp., Pseudomonas spp., Enterococcus spp. and E.coli, with 5% CO2 for Streptococcus spp., K.pneumoniae, P.multocida, L.monocytogenes and N.asteroides. Similarly, fungi were subcultured on Sabouraud agar (SAB) at 35 °C for 24 hours prior to the test. Colonies were resuspended in saline and the OD530 measured with a McFarland reader. If necessary the suspension was diluted to 0.45-0.55 McFarland units with saline. […] Assays Antimicrobial activity was expressed as minimum inhibitory concentration (MIC), which was defined as the lowest concentration of cathelicidin preventing visible growth, relative to the negative control. […]
(§4) 570nm and 620nm using the Victor 3 multilabel plate reader (PerkinElmer). […] To x i city of cathelicidins was calculated according to Invitrogen recommendations and expressed as percentage cell survival compared to the untreated growth control. […]
(§5) Haemolytic activity was assessed using 10mL of human blood collected into potassium -ED T A vacutainers (BD). […]

A further test has as its system E. coli. It is filed as cell-based, Escherichia coli. Conditions: broth microdilution (CLSI), 64 to 0.125 μg/mL, 24 h at 35 °C; human clinical isolate. As to the method: as §1, with “t-test.” for “t-test. Pouch microbiome analysis was performed on swabs from the pouch of lactating and non-lactating devils to detect changes in microbe populations. Pouch swab collection was carried out in accordance with the Save the Tasmanian Devil Program and was approved by the Animal Ethics Committee of the University of Sydney (permit number 681).”
(§6) Two antibiotics, ampicillin and tetracycline, were included as a positive control for bacteria, and the antifungal drug fluconazole for fungi. […] Colonies were resuspended in saline and the OD530 measured with a McFarland reader. […] Assays Antimicrobial activity was expressed as minimum inhibitory concentration (MIC), which was defined as the lowest concentration of cathelicidin preventing visible growth, relative to the negative control. […]
(§7) DMEM and positive control of dimethylsulfoxide (DMSO) (1%) were also included. Following incubation for a further 24 hours, cell viability was determined using alamar blue (Invitrogen) which was added to each well. The plates were incubated for 24 hours, then the absorption measured at 570nm and 620nm using the Victor 3 multilabel plate reader (PerkinElmer). […] To x i city of cathelicidins was calculated according to Invitrogen recommendations and expressed as percentage cell survival compared to the untreated growth control. […]
(§8) Haemolytic activity was assessed using 10mL of human blood collected into potassium -ED T A […]

For a further test, the system named is P. aeruginosa ATCC 27853. The test is described as follows: microbe, parasite or virus in culture. The test is classed as cell-based, Pseudomonas aeruginosa. Conditions: ATCC 27853, 24 h. The protocol:
as §1, §2, §3, §4, §5

The next test has as its system E. faecalis. The test is classed as cell-based, Enterococcus faecalis. Conditions: broth microdilution (CLSI), 64 to 0.125 μg/mL, 24 h at 35 °C; human clinical isolate. As to the method: as §1, §2
(§9) Two antibiotics, ampicillin and tetracycline, were included as a positive control for bacteria, and the antifungal drug fluconazole for fungi. A well containing cells and media only was used as a “no drug” control to ensure that cultures grew normally. Bacteria were subcultured on Mueller Hinton agar (MHA) or Sheep blood agar (BA) for 24 hours at 35 °C for Staphylococcus spp., Pseudomonas spp., Enterococcus spp. and E.coli, with 5% CO2 for Streptococcus spp., K.pneumoniae, P.multocida, L.monocytogenes and N.asteroides. Similarly, fungi were subcultured on Sabouraud agar (SAB) at 35 °C for 24 hours prior to the test. Colonies were resuspended in saline and the OD530 measured with a McFarland reader. If necessary the suspension was diluted to 0.45-0.55 McFarland units with saline. Following a 1:150 dilution for bacteria and twostep dilution for fungi (1:50, 1:20), 100 μL of microorganisms (1x106 – 5 x10^5 cells/mL) were pipetted into wells 2-12, the first well acting as a negative control. Colony counts were performed using a 1:1000 dilution for bacteria and 1:10 for fungi spread onto MHA/BA or SAB plates respectively. The 96 well microdilution and agar plates were incubated for 24 hours at 35 °C (Escherichia coli, Staphylococcus spp., Enterococcus spp. and Pseudomonas spp.), with 5% CO2 (Streptococcus spp. Pasteurella multocida, Klebsiella pneumoniae, Listeria monocytogenes a nd Nocardia asteroids) for bacteria, and 35 °C for 48 hours (Candida spp .) or 72 hours (Cryptococcus spp.) for fungi. Assays Antimicrobial activity was expressed as minimum inhibitory concentration (MIC), which was defined as the lowest concentration of cathelicidin preventing visible growth, relative to the negative control. […]
(§10) DMEM and positive control of dimethylsulfoxide (DMSO) (1%) were also included. Following incubation for a further 24 hours, cell viability was determined using alamar blue (Invitrogen) which was added to each well. The plates were incubated for 24 hours, then the absorption measured at 570nm and 620nm using the Victor 3 multilabel plate reader (PerkinElmer). The assay was performed on two separate occasions. To x i city of cathelicidins was calculated according to Invitrogen recommendations and expressed as percentage cell survival compared to the untreated growth control. A significant difference between cathelicidin treated and control cell survival was tested using a o ne sample t-test (p<0.05).
as §8
(§11) vacutainers (BD). […]

The subject of test [1] is Vancomycin resistant E. faecalis (VREF). It is filed as cell-based, Enterococcus faecalis. Conditions: broth microdilution (CLSI), 64 to 0.125 μg/mL, 24 h at 35 °C, human clinical isolate. The protocol: as §1, §2, §9, §10, §8, §11
(Dilution methods test growth across graded concentrations, often in twofold steps.)

In another test the test system is C. albicans. It is filed as cell-based. The conditions noted are these: broth microdilution (CLSI), YNB, 64 to 0.125 μg/mL, 48 hours at 35 °C; human clinical isolate. The protocol: as §1, §2, §9, §10, §8, §11
In the next test the test system is S. lutetiensis. It is filed as cell-based. The conditions noted are these: broth microdilution (CLSI), 64 to 0.125 μg/mL, 24 h at 35 °C with 5% CO2; human clinical isolate. The protocol:
as §1, §2, §9, §10, §8, §11

The next test concerns S. mutans. The test is classed as cell-based. Conditions: broth microdilution (CLSI), 64 to 0.125 μg/mL, 24 h at 35 °C with 5% CO2; human clinical isolate. As to the method: as §1, §2, §9, §10, §8, §11
The next test has as its system S. oralis/mitis group. It is filed as cell-based. Conditions: broth microdilution (CLSI), 64 to 0.125 μg/mL, 24 h at 35 °C with 5% CO2; human clinical isolate. The protocol: as §1, §2, §9, §10, §8, §11
A further test deals with S. pyogenes ATCC 19615. The test is classed as cell-based. The conditions noted are these: broth microdilution (CLSI), 64 to 0.125 μg/mL, 24 h at 35 °C with 5% CO2; ATCC strain. As to the method: as §1, §2, §9, §10, §8, §11
Another test relates to S. salivarius. It is filed as cell-based. The conditions noted are these: broth microdilution (CLSI), 64 to 0.125 μg/mL, 24 h at 35 °C with 5% CO2; human clinical isolate. As to the method:
as §1, §2, §9, §10, §8, §11

For the next test, the system named is K. pneumoniae*. It is filed as cell-based, Klebsiella pneumoniae. Conditions: broth microdilution (CLSI), 64 to 0.125 μg/mL, 24 h at 35 °C with 5% CO2; animal isolate. The protocol:
as §1, with “t-test.” for “t-test. Pouch microbiome analysis was performed on swabs from the pouch of lactating and non-lactating devils to detect changes in microbe populations. Pouch swab collection was carried out in accordance with the Save the Tasmanian Devil Program and was approved by the Animal Ethics Committee of the University of Sydney (permit number 681).”
as §6, §7, §8

The test system of the next test is P. multocida*. It is filed as cell-based, Pasteurella multocida. Conditions: broth microdilution (CLSI), 64 to 0.125 μg/mL, 24 h at 35 °C with 5% CO2; animal isolate. As to the method: as §1, with “t-test.” for “t-test. Pouch microbiome analysis was performed on swabs from the pouch of lactating and non-lactating devils to detect changes in microbe populations. Pouch swab collection was carried out in accordance with the Save the Tasmanian Devil Program and was approved by the Animal Ethics Committee of the University of Sydney (permit number 681).”
as §6, §7, §8

For test [2], the system named is Methicillin resistant S. aureus (MRSA). The test is classed as cell-based, Staphylococcus aureus. The conditions noted are these: broth microdilution (CLSI), 64 to 0.125 μg/mL, 24 h at 35 °C, human clinical isolate. The protocol:
as §1, §2
Two antibiotics, ampicillin and tetracycline, were included as a positive control for bacteria, and the antifungal drug fluconazole for fungi. A well containing cells and media only was used as a “no drug” control to ensure that cultures grew normally. […] Colonies were resuspended in saline and the OD530 measured with a McFarland reader. […] Assays Antimicrobial activity was expressed as minimum inhibitory concentration (MIC), which was defined as the lowest concentration of cathelicidin preventing visible growth, relative to the negative control. […]
as §7, §8

Where no end group is shown, it is not given here.

“KRIRFFERIRDRLRDLGNRIKNRIRDFFS [Saha-CATH6]”: the MIC with E. coli ATCC 25922 is more than 64 µg/mL; in the test on E. coli, more than 64 µg/mL; in the test with P. aeruginosa ATCC 27853, more than 64 µg/mL; with E. faecalis, more than 64 µg/mL; in test [1], 64 µg/mL; against C. albicans, more than 64 µg/mL. In addition, the MIC against S. lutetiensis is more than 64 µg/mL; against S. mutans, more than 64 µg/mL; in the test with S. oralis/mitis group, 64 µg/mL; with S. pyogenes ATCC 19615, 64 µg/mL; in the test with S. salivarius, more than 64 µg/mL; in the test on K. pneumoniae* it was more than 64 µg/mL. For the same sequence, in the test with P. multocida*, the MIC was more than 64 µg/mL.

Turning to “KRMGIFHLFWAGLRKLGNLIKNKIQQGIENFLG [Saha-CATH3]”, the MIC (in the test on E. coli ATCC 25922; against E. coli; in the test with P. aeruginosa ATCC 27853; in the test on E. faecalis; in test [1]; against C. albicans) was more than 64 µg/mL throughout. The MIC against S. lutetiensis, against S. mutans, against S. oralis/mitis group, against S. pyogenes ATCC 19615, against S. salivarius and against K. pneumoniae* was more than 64 µg/mL each time. In the test on P. multocida*, this sequence gave an MIC of more than 64 µg/mL.

Take KRIGLIRLIGKILRGLRRLG [Saha-CATH5]: the MIC is 32 µg/mL in the test with E. coli ATCC 25922; 32 µg/mL in the test with E. coli; 32 µg/mL in [2]; more than 64 µg/mL with P. aeruginosa ATCC 27853; more than 64 µg/mL in the test on E. faecalis; 32 µg/mL in test [1]. The MIC is more than 64 µg/mL in the test on C. albicans; more than 64 µg/mL with S. lutetiensis; more than 64 µg/mL against S. mutans; 64 µg/mL in the test with S. oralis/mitis group; 32 µg/mL against S. pyogenes ATCC 19615; more than 64 µg/mL against S. salivarius. In addition, the MIC in the test with K. pneumoniae* and in the test with P. multocida* was more than 64 µg/mL throughout.

These data come from article PMC5057115, “Cathelicidins in the Tasmanian devil (Sarcophilus harrisii)” (Scientific Reports, 2016).
